In patent US12059420B2 (BRISTOL-MYERS SQUIBB COMPANY, priority 2018, dated 2024) one finds IC50 data, which are given here for 31 molecules.

pIC50: −log10 of the molar value. Counter-ions that a name gives are not always drawn.

The target of this assay is T1, human IDO1 (Homo sapiens, UniProt P14902).
T1 construct: expressed in transfected cells
T1 sequence (P14902 whole entry): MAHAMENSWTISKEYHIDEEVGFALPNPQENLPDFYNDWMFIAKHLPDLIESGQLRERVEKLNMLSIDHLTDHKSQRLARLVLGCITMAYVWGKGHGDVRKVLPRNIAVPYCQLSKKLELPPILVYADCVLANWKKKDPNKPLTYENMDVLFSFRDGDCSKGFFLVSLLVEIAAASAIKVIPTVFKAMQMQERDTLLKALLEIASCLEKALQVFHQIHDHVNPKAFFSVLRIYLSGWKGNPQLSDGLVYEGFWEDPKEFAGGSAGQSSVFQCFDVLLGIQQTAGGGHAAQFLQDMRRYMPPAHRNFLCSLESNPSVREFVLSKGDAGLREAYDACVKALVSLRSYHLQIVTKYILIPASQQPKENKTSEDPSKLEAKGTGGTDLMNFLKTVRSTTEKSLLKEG
Description: IDO inhibition assay in HEK293 cells stably expressing human IDO1 (kynurenine production, Ehrlich reagent, absorbance 490 nm). It is filed as cell-based. Conditions: 20 hours incubation with compound, 500 nM reference standard = 100% inhibition, read-out: IDO1 HEK Human IC50. The method in brief:
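HEK293 clones stably expressing human IDO1 (10,000 cells/well, phenol red-free RPMI, 10% FBS) were treated with compound for 20 hours at 37° C. After 0.2% TCA and 30 min at 50° C., kynurenine was read with Ehrlich reagent at 490 nm. IC50 was normalised to DMSO (0%) and 500 nM reference standard (100%).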
As for `CC(C)CN(Cc1ccccc1)c1cc(Nc2ccc3c(c2)OCO3)cc(-c2ccccc2-c2nnn[nH]2)n1` [Example 57, 6-(2-(1H-tetrazol-5-yl)phenyl)-N4-(benzo[d][1,3]dioxol-5-yl)-N2-benzyl-N2-isobutylpyridine-2,4-diamine], the pIC50 (commonly the negative decadic logarithm of the IC50, by convention in mol/L) was 8.40.
On to `CCCN(Cc1ccccc1)c1cc(Nc2ccc3nc(C)sc3c2)cc(-c2ccccc2-c2nnn[nH]2)n1` [Example 58, 6-(2-(1H-tetrazol-5-yl)phenyl)-N2-benzyl-N4-(2-methylbenzo [d]thiazol-6-yl)-N2-propylpyridine-2,4-diamine], for which the pIC50 was 8.38.
For the molecule `CCCN(Cc1ccccc1)c1cc(Nc2nc(-c3ccccc3)cs2)cc(-c2ccccc2-c2nnn[nH]2)n1` [Example 59, 6-(2-(1H-tetrazol-5-yl)phenyl)-N2-benzyl-N4-(4-phenylthiazol-2-yl)-N2-propylpyridine-2,4-diamine], the pIC50 is 6.86.
Turning to `CCCN(Cc1ccccc1)c1cc(Nc2nnc(C)s2)cc(-c2ccccc2-c2nnn[nH]2)n1` [Example 60, 6-(2-(1H-tetrazol-5-yl)phenyl)-N2-benzyl-N4-(5-methyl-1,3,4-thiadiazol-2-yl)-N2-propylpyridine-2,4-diamine], the pIC50 was 6.08.
Regarding `CCCN(Cc1ccccc1)c1cc(Nc2ccn(C)n2)cc(-c2ccccc2-c2nnn[nH]2)n1` [Example 61, 6-(2-(1H-tetrazol-5-yl)phenyl)-N2-benzyl-N4-(1-methyl-1H-pyrazol-3-yl)-N2-propylpyridine-2,4-diamine], the pIC50 is 6.35.
Turning to `CCCN(Cc1ccccc1)c1cc(Nc2nc3ccc(F)cc3s2)cc(-c2ccccc2-c2nnn[nH]2)n1` [Example 62, 6-(2-(1H-tetrazol-5-yl)phenyl)-N2-benzyl-N4-(6-fluorobenzo[d]thiazol-2-yl)-N2-propylpyridine-2,4-diamine], the pIC50 was 7.25.
With `CCCN(CC1CC1)c1nc(NC(=O)Cc2ccc(C)cc2)cc(-c2ccccc2-c2nnn[nH]2)n1` [Example 64, N-(6-(2-(1H-tetrazol-5-yl)phenyl)-2-((cyclopropylmethyl)(propyl)amino)pyrimidin-4-yl)-2-(p-tolyl)acetamide, TFA], the pIC50 is 6.79.
For the molecule `CCCN(CC1CC1)c1nc(NC(=O)Nc2ccc(F)cc2)cc(-c2ccccc2-c2nnn[nH]2)n1` [Example 65, 1-(6-(2-(1H-tetrazol-5-yl)phenyl)-2-((cyclopropylmethyl)(propyl)amino)pyrimidin-4-yl)-3-(4-fluorophenyl)urea, TFA], the pIC50 was 5.34.
As for `CCCN(CC1CC1)c1nc(NC(=O)Nc2ccc(C)cc2)cc(-c2ccccc2-c2nnn[nH]2)n1` [Example 66, 1-(6-(2-(1H-tetrazol-5-yl)phenyl)-2-((cyclopropylmethyl)(propyl)amino)pyrimidin-4-yl)-3-(p-tolyl)urea, TFA], the figure is 6.36; as for `CCCN(CC1CC1)c1nc(NC(=O)Nc2ccc(OC(F)(F)F)cc2)cc(-c2ccccc2-c2nnn[nH]2)n1` [Example 67, 1-(6-(2-(1H-tetrazol-5-yl)phenyl)-2-((cyclopropylmethyl) (propyl)amino)pyrimidin-4-yl)-3-(4-(trifluoromethoxy)phenyl)urea], 5.61.
Take `Cc1ccc(CC(=O)Nc2cc(-c3ccccc3-c3nnn[nH]3)nc(N3CCCc4ccccc43)c2)cc1` [Example 68, N-(2-(2-(1H-tetrazol-5-yl)phenyl)-6-(3,4-dihydroquinolin-1(2H)-yl)pyridin-4-yl)-2-(p-tolyl)acetamide, TFA]: the negative-log IC50 (pIC50) is 6.49.
Regarding `CC(C)CN(Cc1ccccc1)c1cc(NC(=O)Nc2ccc(F)cc2)cc(-c2ccccc2-c2nnn[nH]2)n1` [Example 69, 1-(2-(2-(1H-tetrazol-5-yl)phenyl)-6-(benzyl(isobutyl)amino)pyridin-4-yl)-3-(4-fluorophenyl)urea, TFA], the pIC50 is 6.87.
Take `CCCN(CC1CC1)c1cc(NC(=O)Cc2ccc(F)cc2F)cc(-c2ccccc2-c2nnn[nH]2)n1` [Example 70, N-(2-(2-(1H-tetrazol-5-yl)phenyl)-6-((cyclopropylmethyl)(propyl)amino)pyridin-4-yl)-2-(2,4-difluorophenyl)acetamide, TFA]: the negative logarithm of the IC50 (pIC50) is 6.38.
As for `CCCN(Cc1ccccc1)c1cc(NC(=O)Nc2ccc(F)cc2F)cc(-c2ccccc2-c2nnn[nH]2)n1` [Example 71, 1-(2-(2-(1H-tetrazol-5-yl)phenyl)-6-(benzyl(propyl)amino)pyridin-4-yl)-3-(2,4-difluorophenyl)urea, TFA], the figure is 7.49; as for `CCCN(Cc1ccccc1)c1cc(NC(=O)Nc2ccc(Cl)cc2F)cc(-c2ccccc2-c2nnn[nH]2)n1` [Example 72, 1-(2-(2-(1H-tetrazol-5-yl)phenyl)-6-(benzyl(propyl)amino)pyridin-4-yl)-3-(4-chloro-2-fluorophenyl)urea, TFA], 8.07; as for `CCCN(CC1CC1)c1cc(NC(=O)Cc2ccc(F)cc2)cc(-c2ccccc2-c2nnn[nH]2)n1` [Example 73, N-(2-(2-(1H-tetrazol-5-yl)phenyl)-6-((cyclopropylmethyl)(propyl)amino)pyridin-4-yl)-2-(4-fluorophenyl)acetamide, TFA], 6.48.
Consider `CC(C)CN(Cc1ccccc1)c1cc(Nc2ncc(C(F)(F)F)cn2)cc(-c2ccccc2-c2nnn[nH]2)n1` [Example 74, 6-(2-(1H-tetrazol-5-yl)phenyl)-N2-benzyl-N2-isobutyl-N4-(5-(trifluoromethyl)pyrimidin-2-yl)pyridine-2,4-diamine, TFA], for which the pIC50 was 7.12.
The value for `CCCN(Cc1ccc(F)cc1)c1cc(NC(=O)Cc2ccc(C)cc2F)cc(-c2ccccc2-c2nnn[nH]2)n1` [Example 75, N-(2-(2-(1H-tetrazol-5-yl)phenyl)-6-((4-fluorobenzyl)(propyl)amino)pyridin-4-yl)-2-(2-fluoro-4-methylphenyl)acetamide, TFA] was 7.55; that for `Cc1ccc(CC(=O)Nc2cc(-c3ccccc3-c3nnn[nH]3)nc(N3CCN(Cc4ccccc4)C(=O)C3)c2)cc1` [Example 76, N-(2-(2-(1H-tetrazol-5-yl)phenyl)-6-(4-benzyl-3-oxopiperazin-1-yl)pyridin-4-yl)-2-(p-tolyl)acetamide, TFA] was 6.00.
The value for `Cc1ccc(CC(=O)Nc2cc(-c3ccccc3-c3nnn[nH]3)nc(N(CC(C)C)C3CCOCC3)c2)cc1` [Example 77, N-(2-(2-(1H-tetrazol-5-yl)phenyl)-6-(isobutyl(tetrahydro-2H-pyran-4-yl)amino)pyridin-4-yl)-2-(p-tolyl)acetamide, TFA] was 5.68.
As for `Cc1ccc(NC(=O)Nc2cc(-c3ccccc3-c3nnn[nH]3)nc(N(Cc3ccc(F)cc3)CC(C)C)c2)cc1` [Example 78, 1-(2-(2-(1H-tetrazol-5-yl)phenyl)-6-((4-fluorobenzyl)(isobutyl)amino)pyridin-4-yl)-3-(p-tolyl)urea, TFA], the figure is 8.09; as for `Cc1ccc(CC(=O)Nc2cc(-c3ccccc3-c3nnn[nH]3)nc(N(Cc3ccccc3)CC(C)C)c2)c(F)c1` [Example 79, N-(2-(2-(1H-tetrazol-5-yl)phenyl)-6-(benzyl(isobutyl)amino)pyridin-4-yl)-2-(2-fluoro-4-methylphenyl)acetamide, TFA], 7.74.
`CC(C)CN(Cc1ccccc1)c1cc(NC(=O)Cc2ccc(F)cc2)cc(-c2ccccc2-c2nnn[nH]2)n1` [Example 80, N-(2-(2-(1H-tetrazol-5-yl)phenyl)-6-(benzyl(isobutyl)amino)pyridin-4-yl)-2-(4-fluorophenyl)acetamide, TFA]: the negative-log IC50 (pIC50) was 6.46.
As for `CCCN(CC1CC1)c1cc(NC(=O)Cc2ccc(C)cc2F)cc(-c2ccccc2-c2nnn[nH]2)n1` [Example 82, N-(2-(2-(1H-tetrazol-5-yl)phenyl)-6-((cyclopropylmethyl)(propyl)amino)pyridin-4)-2-(2-fluoro-4-methylphenyl)acetamide, TFA], the figure is 6.14.
The value for `CCCN(CC1CC1)c1cc(NC(=O)Nc2ccc(Cl)cc2Cl)cc(-c2ccccc2-c2nnn[nH]2)n1` [Example 83, 1-(2-(2-(1H-tetrazol-5-yl)phenyl)-6-((cyclopropylmethyl)(propyl)amino)pyridin-4-yl)-3-(2,4-dichlorophenyl)urea, TFA] was 6.80; that for `CCCN(CC1CC1)c1cc(Nc2ncc(C(F)(F)F)cn2)cc(-c2ccccc2-c2nnn[nH]2)n1` [Example 84] was 6.43; that for `CCCN(Cc1ccc(F)cc1)c1cc(NC(=O)Cc2ccc(C)cc2)cc(-c2ccccc2-c2nnn[nH]2)n1` [Example 85, N-(2-(2-(1H-tetrazol-5-yl)phenyl)-6-((4-fluorobenzyl)(propyl)amino)pyridin-4-yl)-2-(p-tolyl)acetamide, TFA] was 7.05.
As for `CCCN(Cc1ccc(F)cc1)c1cc(NC(=O)Nc2ccc(Cl)cc2Cl)cc(-c2ccccc2-c2nnn[nH]2)n1` [Example 86, 1-(2-(2-(1H-tetrazol-5-yl)phenyl)-6-((4-fluorobenzyl)(propyl)amino)pyridin-4-yl)-3-(2,4-dichlorophenyl)urea], the figure is 8.07; as for `Cc1ccc(CC(=O)Nc2cc(-c3ccccc3-c3nnn[nH]3)nc(N(Cc3ccccc3)CC(C)C)c2)cc1` [Example 87, N-(2-(2-(1H-tetrazol-5-yl)phenyl)-6-(benzyl(isobutyl)amino)pyridin-4-yl)-2-(p-tolyl)acetamide, TFA], 7.39; as for `CCCN(Cc1ccccc1)c1cc(NC(=O)Nc2ccccc2F)cc(-c2cc(C)ccc2-c2nnn[nH]2)n1` [Example 88, 1-(2-(benzyl(propyl)amino)-6-(5-methyl-2-(1H-tetrazol-5-yl)phenyl)pyridin-4-yl)-3-(2-fluorophenyl)urea, TFA], 6.96.
As to `Cc1ccc(CC(=O)Nc2cc(-c3cc(F)ccc3-c3nnn[nH]3)nc(N(Cc3ccccc3)CC(C)C)c2)cc1` [Example 89, N-(2-(benzyl(isobutyl)amino)-6-(5-fluoro-2-(1H-tetrazol-5-yl)phenyl)pyridin-4-yl)-2-(p-tolyl)acetamide, TFA], the pIC50 was 6.82.
